Measured values published in US20070049564A1 (Wyeth, priority 2005, published 2007).
In brackets after ≈: the same amount, converted by molar mass. Like-named read-outs stand apart in the source and are kept apart here.

Legend:
[1] = test system: Staph. aureus Smith; assay: In vivo activity (oral, iv; ED50) against Staph. aureus Smith in mice
[2] = test system: S. pneumoniae+ GC 4465; assay: MIC, broth microdilution; conditions: Streptococcus pneumoniae
[3] = test system: E. coli GC 2232; assay: MIC, broth microdilution; conditions: Escherichia coli
[4] = test system: S. aureus GC 4536; assay: MIC, broth microdilution; conditions: Staphylococcus aureus
[5] = test system: S. agalactiae GC 4564; assay: MIC, broth microdilution; conditions: Streptococcus agalactiae
[6] = test system: E. faecalis GC 2242; assay: MIC, broth microdilution; conditions: Enterococcus faecalis
[7] = test system: S. aureus GC 6466; assay: MIC, broth microdilution; conditions: Staphylococcus aureus
[8] = test system: E. coli GC 4559; assay: MIC, broth microdilution; conditions: Escherichia coli
[9] = test system: S. pneumoniae* GC 4465; assay: MIC, broth microdilution; conditions: Streptococcus pneumoniae
[10] = test system: E. faecalis GC 4555; assay: MIC, broth microdilution; conditions: Enterococcus faecalis
[11] = test system: S. aureus GC 2216; assay: MIC, broth microdilution; conditions: Staphylococcus aureus
[12] = test system: E. coli GC 2236; assay: MIC, broth microdilution; conditions: Escherichia coli
[13] = test system: S. typhimurium GC 2172; assay: MIC, broth microdilution; conditions: Salmonella enterica, TYPHIMURIUM
[14] = test system: E. coli GC 2231; assay: MIC, broth microdilution; conditions: Escherichia coli
[15] = test system: E. coli; assay: Range of MIC for E. coli strains; conditions: Escherichia coli
[16] = test system: Staph.; assay: Range of MIC for Staph. strains, including MRSA; conditions: Staphylococcus aureus
[17] = test system: S. pyogenes GC 4563; assay: MIC, broth microdilution; conditions: Streptococcus pyogenes
[18] = test system: E. faecium GC 4556; assay: MIC, broth microdilution; conditions: Enterococcus faecium
[19] = test system: E. coli GC 2234; assay: MIC, broth microdilution; conditions: Escherichia coli
[20] = test system: E. coli GC 2235; assay: MIC, broth microdilution; conditions: Escherichia coli
[21] = read-out: MINIMAL INHIBITORY CONCENTRATION MIC, Human Serum
[22] = read-out: MINIMAL INHIBITORY CONCENTRATION MIC, Mouse Serum
[23] = read-out: MINIMAL INHIBITORY CONCENTRATION MIC, Water

MIC [2, 21]: 1 mg/L (≈ 1.4 µM)
MIC [2, 22]: 1 mg/L (≈ 1.4 µM)
MIC [2, 23]: 1 mg/L (≈ 1.4 µM)
MIC ([3]; GC2232, read-out: MINIMAL INHIBITORY CONCENTRATION MIC, Human Serum): 4 mg/L (≈ 5.59 µM)
MIC ([3]; GC2232, read-out: MINIMAL INHIBITORY CONCENTRATION MIC, Mouse Serum): 0.5 mg/L (≈ 0.699 µM)
MIC ([3]; GC2232, read-out: MINIMAL INHIBITORY CONCENTRATION MIC, Water): 16 mg/L (≈ 22.4 µM)
MIC ([4]; GC4536, read-out: MINIMAL INHIBITORY CONCENTRATION MIC, Human Serum): 0.25 mg/L (≈ 0.349 µM)
MIC ([4]; GC4536, read-out: MINIMAL INHIBITORY CONCENTRATION MIC, Mouse Serum): 0.25 mg/L (≈ 0.349 µM)
MIC ([4]; GC4536, read-out: MINIMAL INHIBITORY CONCENTRATION MIC, Water): 0.25 mg/L (≈ 0.349 µM)
MIC ([5]; GC4564, read-out: MINIMAL INHIBITORY CONCENTRATION MIC, Human Serum): 0.12 mg/L (≈ 0.168 µM)
MIC ([5]; GC4564, read-out: MINIMAL INHIBITORY CONCENTRATION MIC, Mouse Serum): 0.12 mg/L (≈ 0.168 µM)
MIC ([5]; GC4564, read-out: MINIMAL INHIBITORY CONCENTRATION MIC, Water): 0.25 mg/L (≈ 0.349 µM)
MIC ([6]; GC2242, read-out: MINIMAL INHIBITORY CONCENTRATION MIC, Human Serum): 1 mg/L (≈ 1.4 µM)
MIC ([6]; GC2242, read-out: MINIMAL INHIBITORY CONCENTRATION MIC, Mouse Serum): 0.5 mg/L (≈ 0.699 µM)
MIC ([6]; GC2242, read-out: MINIMAL INHIBITORY CONCENTRATION MIC, Water): 2 mg/L (≈ 2.79 µM)
MIC ([7]; GC6466, read-out: MINIMAL INHIBITORY CONCENTRATION MIC, Human Serum): 0.12 mg/L (≈ 0.168 µM)
MIC ([7]; GC6466, read-out: MINIMAL INHIBITORY CONCENTRATION MIC, Mouse Serum): 0.12 mg/L (≈ 0.168 µM)
MIC ([7]; GC6466, read-out: MINIMAL INHIBITORY CONCENTRATION MIC, Water): 0.12 mg/L (≈ 0.168 µM)
MIC ([8]; GC4559, read-out: MINIMAL INHIBITORY CONCENTRATION MIC, Human Serum): 8 mg/L (≈ 11.2 µM)
MIC ([8]; GC4559, read-out: MINIMAL INHIBITORY CONCENTRATION MIC, Mouse Serum): 0.5 mg/L (≈ 0.699 µM)
MIC ([8]; GC4559, read-out: MINIMAL INHIBITORY CONCENTRATION MIC, Water): 16 mg/L (≈ 22.4 µM)
MIC [9, 21]: 0.12 mg/L (≈ 0.168 µM)
MIC [9, 22]: 0.12 mg/L (≈ 0.168 µM)
MIC [9, 23]: 0.12 mg/L (≈ 0.168 µM)
MIC ([10]; GC4555, read-out: MINIMAL INHIBITORY CONCENTRATION MIC, Human Serum): 0.5 mg/L (≈ 0.699 µM)
MIC ([10]; GC4555, read-out: MINIMAL INHIBITORY CONCENTRATION MIC, Mouse Serum): 0.25 mg/L (≈ 0.349 µM)
MIC ([10]; GC4555, read-out: MINIMAL INHIBITORY CONCENTRATION MIC, Water): 4 mg/L (≈ 5.59 µM)
MIC ([11]; GC2216, read-out: MINIMAL INHIBITORY CONCENTRATION MIC, Human Serum): 0.25 mg/L (≈ 0.349 µM)
MIC ([11]; GC2216, read-out: MINIMAL INHIBITORY CONCENTRATION MIC, Mouse Serum): 0.25 mg/L (≈ 0.349 µM)
MIC ([11]; GC2216, read-out: MINIMAL INHIBITORY CONCENTRATION MIC, Water): 0.5 mg/L (≈ 0.699 µM)
MIC ([12]; GC2236, read-out: MINIMAL INHIBITORY CONCENTRATION MIC, Human Serum): 4 mg/L (≈ 5.59 µM)
MIC ([12]; GC2236, read-out: MINIMAL INHIBITORY CONCENTRATION MIC, Mouse Serum): 0.5 mg/L (≈ 0.699 µM)
MIC ([12]; GC2236, read-out: MINIMAL INHIBITORY CONCENTRATION MIC, Water): 16 mg/L (≈ 22.4 µM)
MIC [13, 21]: 32 mg/L (≈ 44.7 µM)
MIC [13, 22]: 4 mg/L (≈ 5.59 µM)
MIC [13, 23]: > 64 mg/L
MIC ([14]; GC2231, read-out: MINIMAL INHIBITORY CONCENTRATION MIC, Human Serum): 8 mg/L (≈ 11.2 µM)
MIC ([14]; GC2231, read-out: MINIMAL INHIBITORY CONCENTRATION MIC, Mouse Serum): 0.5 mg/L (≈ 0.699 µM)
MIC ([14]; GC2231, read-out: MINIMAL INHIBITORY CONCENTRATION MIC, Water): 16 mg/L (≈ 22.4 µM)
MIC ([15]; 20 h, read-out: Range of MIC, E. coli (Mouse Serum)): 0.25 to 2 mg/L (≈ 0.349 to 2.79 µM)
MIC ([15]; read-out: Minimum inhibitory concentration (MIC), E. coli (Human Serum)): 4 to 32 mg/L (≈ 5.59 to 44.7 µM)
MIC ([16]; MRSA, read-out: Range of MIC, Staph (Mouse Serum)): 0.12 to 1 mg/L (≈ 0.168 to 1.4 µM)
MIC ([16]; MRSA, read-out: Range of MIC, Staph (Water)): 0.12 to 2 mg/L (≈ 0.168 to 2.79 µM)
MIC ([16]; read-out: Minimum inhibitory concentration (MIC), Staph (Human Serum)): 0.12 to 1 mg/L (≈ 0.168 to 1.4 µM)
MIC ([16]; read-out: Minimum inhibitory concentration (MIC), Staph (Water)): 0.12 to 2 mg/L (≈ 0.168 to 2.79 µM)
MIC ([17]; GC4563, read-out: MINIMAL INHIBITORY CONCENTRATION MIC, Human Serum): 0.12 mg/L (≈ 0.168 µM)
MIC ([17]; GC4563, read-out: MINIMAL INHIBITORY CONCENTRATION MIC, Mouse Serum): 0.12 mg/L (≈ 0.168 µM)
MIC ([17]; GC4563, read-out: MINIMAL INHIBITORY CONCENTRATION MIC, Water): 0.12 mg/L (≈ 0.168 µM)
MIC ([18]; GC4556, read-out: MINIMAL INHIBITORY CONCENTRATION MIC, Human Serum): 1 mg/L (≈ 1.4 µM)
MIC ([18]; GC4556, read-out: MINIMAL INHIBITORY CONCENTRATION MIC, Mouse Serum): 0.5 mg/L (≈ 0.699 µM)
MIC ([18]; GC4556, read-out: MINIMAL INHIBITORY CONCENTRATION MIC, Water): 2 mg/L (≈ 2.79 µM)
MIC ([19]; GC2234, read-out: MINIMAL INHIBITORY CONCENTRATION MIC, Human Serum): 4 mg/L (≈ 5.59 µM)
MIC ([19]; GC2234, read-out: MINIMAL INHIBITORY CONCENTRATION MIC, Mouse Serum): 0.25 mg/L (≈ 0.349 µM)
MIC ([19]; GC2234, read-out: MINIMAL INHIBITORY CONCENTRATION MIC, Water): 16 mg/L (≈ 22.4 µM)
MIC ([20]; GC2235, read-out: MINIMAL INHIBITORY CONCENTRATION MIC, Human Serum): 4 mg/L (≈ 5.59 µM)
MIC ([20]; GC2235, read-out: MINIMAL INHIBITORY CONCENTRATION MIC, Mouse Serum): 0.5 mg/L (≈ 0.699 µM)
MIC ([20]; GC2235, read-out: MINIMAL INHIBITORY CONCENTRATION MIC, Water): 8 mg/L (≈ 11.2 µM)
SMILES: CCC(=O)OCOC(=O)N(CC(=O)Nc1cc(N(C)C)c2c(c1O)C(=O)C1=C(O)[C@]3(O)C(=O)C(C(N)=O)=C(O)[C@@H](N(C)C)[C@@H]3C[C@@H]1C2)C(C)(C)C [Example 49, ({[(2-{[(5aR,6aS,7S,10aS)-9-(aminocarbonyl)-4,7-bis(dimethylamino)-1,8,10a,11-tetrahydroxy-10,12-dioxo-5,5a,6,6a,7,10,10a,12-octahydrotetracen-2-yl]amino}-2-oxoethyl)(tert-butyl)amino]carbonyl}oxy)methyl propionate]
ED50 ([1]; Staphylococcus aureus, in Mus musculus, iv, read-out: ED50 SIV (Staph aureus Smith)): 0.92 mg/kg
ED50 ([1]; Staphylococcus aureus, in Mus musculus, po, read-out: ED50 SOD (Staph aureus Smith)): 16 mg/kg
ED50 ([1]; Staphylococcus aureus, in Mus musculus, po, read-out: ED50 Staph Smith SOD): 16.6 mg/kg
ED50 ([1]; iv, read-out: ED50 Staph Smith SIV): 0.92 mg/kg
